Source: patent US10231453B2, “5-substituted imidazole derivatives” (BAYER CROPSCIENCE AKTIENGESELLSCHAFT, priority 2015, dated 2019)
Where two headings read alike, the source gives them in different places.

Legend:
[1] = system: Blumeria graminis fsp. hordei; experiment: In vivo preventive Blumeria test (barley), Example K; conditions: 168 h, 500 ppm of active ingredient, preventive spray, evaluated 7 days after inoculation, read-out: efficacy
Source text: After the spray coating has been dried, the plants are dusted with spores of Blumeria graminis fsp. hordei.

Alternaria solani = experiment: In vivo preventive Alternaria test (tomatoes), Example H; conditions: 72 h, 100 ppm of active ingredient, preventive spray, evaluated 3 days after inoculation, read-out: efficacy
Puccinia recondita = experiment: In vivo preventive test on Puccinia recondita (brown rust on wheat), Examples C and R3; conditions: Puccinia recondita, 264 h, preventive spray, evaluated 11 days after inoculation
Pyrenophora teres = experiment: In vivo preventive test on Pyrenophora teres (net blotch on barley), Examples D, Q2 and R4; conditions: Pyrenophora teres, 336 h
Botrytis cinerea [2] = experiment: In vivo preventive test on Botrytis cinerea (grey mould) on gherkin, Examples B, Q1 and R2; conditions: for pest or weed control at 500 ppm / pest or weed control at 100 ppm: Botrytis cinerea; for pest or weed control at 100 ppm: Example Q1, rate of application 100 ppm
Fusarium culmorum = experiment: In vitro test for the calculation of the ED50-value with microorganisms, Example Q4: Fusarium culmorum; type: cell-based; conditions: liquid culture, spore suspension, 4 to 7 days incubation, spectrometric measurement of mycelium growth
Experimental: • Solvent: Dimethyl sulfoxide • Culture medium: 14.6 g anhydrous D-glucose (VWR), 7.1 g Mycological Peptone (Oxoid), 1.4 g granulated Yeast Extract (Merck), QSP liter • Inoculum: Spore suspension
Fungicides were solubilized in DMSO and the solution used to prepare the required range of concentrations. The final concentration of DMSO used in the assay was ≤1%.
A spore suspension was prepared and diluted to the desired spore density.
Fungicides were evaluated for their ability to inhibit spore germination and mycelium growth in liquid culture assay. The compounds were added in the desired concentration to the culture medium with spores. After 4 to 7 days incubation, fungi-toxicity of compounds was determined by spectrometric measurement of mycelium growth. Inhibition of fungal growth was determined by comparing the absorbance values in wells containing the fungicides with the absorbance in control wells without fungicides.

[3] = Measurement of LogP values by HPLC on reversed phase columns (EEC directive 79/831 Annex V.A8); type: physicochemical; conditions: method [a]: LC-UV, acidic range, 0.1% formic acid in water and acetonitrile as eluent; Table 1
Experimental: Measurement of Log P values was performed as outlined above.

Alternaria brassicae = experiment: In vivo preventive test on Alternaria brassicae (leaf spot on radish), Examples A and R1; conditions: Alternaria brassicae, 144 h
Pyricularia oryzae = experiment: whole plant or invertebrate; type: in vivo; conditions: 192 h, read-out: efficacy
Sphaerotheca fuliginea = experiment: In vivo preventive test on Sphaerotheca fuliginea (powdery mildew on cucurbits), Examples F and R6; conditions: Podosphaera fuliginea, 360 h, preventive spray, evaluated 15 days after inoculation
Phakopsora pachyrhizi = experiment: In vivo preventive Phakopsora test (soybeans), Example I; conditions: 168 h, 100 ppm of active ingredient, preventive spray, evaluated 7 days after inoculation, read-out: efficacy
Leptosphaeria nodorum [4] = experiment: In vivo preventive Leptosphaeria nodorum test (wheat), Example N; conditions: Parastagonospora nodorum, 192 h, 500 ppm of active ingredient, preventive spray, evaluated 8 days after inoculation, read-out: efficacy
Source text: After the spray coating has been dried, the plants are sprayed with a spore suspension of Leptosphaeria nodorum.

Septoria tritici [5] = experiment: In vivo preventive test on Septoria tritici (leaf spot on wheat), Examples E, Q3 and R5; conditions: Zymoseptoria tritici, 576 h
Septoria tritici [6] = experiment: In vitro test for the calculation of the ED50-value with microorganisms, Example Q4: Septoria tritici; type: cell-based; conditions: liquid culture, spore suspension, 4 to 7 days incubation, spectrometric measurement of mycelium growth
Botrytis cinerea [7] = experiment: In vitro test for the calculation of the ED50-value with microorganisms, Example Q4: Botrytis cinerea; type: cell-based; conditions: liquid culture, spore suspension, 4 to 7 days incubation, spectrometric measurement of mycelium growth
Leptosphaeria nodorum [8] = experiment: In vitro test for the calculation of the ED50-value with microorganisms, Example Q4: Leptosphaeria nodorum; type: cell-based; conditions: liquid culture, spore suspension, 4 to 7 days incubation, spectrometric measurement of mycelium growth
Uromyces appendiculatus = experiment: In vivo preventive test on Uromyces appendiculatus (bean rust), Examples G and R7; conditions: 264 h, preventive spray, evaluated 11 days after inoculation
Venturia inaequalis = experiment: In vivo preventive Venturia test (apples), Example J; conditions: 240 h, read-out: efficacy
Experimental: After the spray coating has dried on, the plants are inoculated with an aqueous conidia suspension of the causal agent of apple scab (Venturia inaequalis) and then remain for 1 day in an incubation cabinet at approximately 20° C. and a relative atmospheric humidity of 100%.
The plants are then placed in a greenhouse at approximately 21° C. and a relative atmospheric humidity of approximately 90%.
The test is evaluated 10 days after the inoculation.

[9] = 500 ppm of active ingredient, wheat, read-out: efficacy
[10] = Example R3, wheat, read-out: Efficacy in %
[11] = Example R3, wheat, 500 ppm, read-out: Efficacy in %
[12] = 500 ppm of active ingredient, preventive spray, evaluated 14 days after inoculation, read-out: efficacy
[13] = Example Q2, rate of application 100 ppm, read-out: Efficacy in %
[14] = Example Q2, rate of application 500 ppm, read-out: Efficacy in %
[15] = Example R4, rate of application 100 ppm, read-out: Efficacy in %
[16] = Example R4, rate of application 500 ppm, read-out: Efficacy in %
[17] = 500 ppm of active ingredient, preventive spray, evaluated 4 to 5 days after inoculation, read-out: efficacy
[18] = Example Q1, rate of application 500 ppm, read-out: Efficacy in %
[19] = Example R2, rate of application 100 ppm
[20] = Example R2, rate of application 500 ppm
[21] = 500 ppm of active ingredient, gherkin, read-out: efficacy
[22] = Example R6, gherkin, read-out: Efficacy in %
[23] = Example R6, gherkin, 500 ppm, read-out: Efficacy in %
[24] = 500 ppm of active ingredient, wheat, preventive spray, evaluated 24 days after inoculation, read-out: efficacy
[25] = Example Q3, rate of application 100 ppm, wheat, read-out: Efficacy in %
[26] = Example Q3, rate of application 500 ppm, wheat, read-out: Efficacy in %
[27] = Example R5, wheat, preventive spray, 100 ppm, evaluated 24 days after inoculation, read-out: Efficacy in %
[28] = Example R5, wheat, preventive spray, 500 ppm, evaluated 24 days after inoculation, read-out: Efficacy in %
[29] = 500 ppm of active ingredient, bean, read-out: efficacy
[30] = Example R7, bean, read-out: Efficacy in %
[31] = Example R7, bean, 500 ppm, read-out: Efficacy in %

**Q.** What does the source list for OC(Cc1ccc(Cl)cc1F)(Cn1cncc1Cl)C1(Cl)CC1 (stereo not shown) [Example I-27, 2-(1-chlorocyclopropyl)-1-(4-chloro-2-fluorophenyl)-3-(5-chloro-1H-imidazol-1-yl)propan-2-ol]?
**A.** pest or weed control at 500 ppm [1]: 90 to 100%; pest or weed control at 100 ppm (Alternaria solani): 90 to 100%; pest or weed control at 500 ppm (Puccinia recondita; [9]): 90 to 100%; pest or weed control at 100 ppm (Puccinia recondita; [10]): 89%; pest or weed control at 500 ppm (Puccinia recondita; [11]): 98%; pest or weed control at 500 ppm (Pyrenophora teres; [12]): 90 to 100%; pest or weed control at 100 ppm (Pyrenophora teres; [13]): 94%; pest or weed control at 500 ppm (Pyrenophora teres; [14]): 98%; pest or weed control at 100 ppm (Pyrenophora teres; [15]): 94%; pest or weed control at 500 ppm (Pyrenophora teres; [16]): 98%; pest or weed control at 500 ppm (Botrytis cinerea [2]; [17]): 90 to 100%; pest or weed control at 100 ppm (Botrytis cinerea [2]; read-out: Efficacy in %): 99%; pest or weed control at 500 ppm (Botrytis cinerea [2]; [18]): 100%; Efficacy in % (Botrytis cinerea [2]; [19]): 99%; Efficacy in % (Botrytis cinerea [2]; [20]): 100%; Fusarium culmorum ED50 value in ppm (Fusarium culmorum): <0.006 ppm; chromatographic logP [3]: 2.48; pest or weed control at 500 ppm (Alternaria brassicae; 500 ppm of active ingredient, preventive spray, evaluated 6 days after inoculation, read-out: efficacy): 90 to 100%; pest or weed control at 100 ppm (Alternaria brassicae; Example R1, rate of application 100 ppm, read-out: Efficacy in %): 50%; pest or weed control at 500 ppm (Alternaria brassicae; Example R1, rate of application 500 ppm, read-out: Efficacy in %): 92%; pest or weed control at 500 ppm (Pyricularia oryzae): 90 to 100%; pest or weed control at 500 ppm (Sphaerotheca fuliginea; [21]): 90 to 100%; pest or weed control at 100 ppm (Sphaerotheca fuliginea; [22]): 100%; pest or weed control at 500 ppm (Sphaerotheca fuliginea; [23]): 100%; pest or weed control at 100 ppm (Phakopsora pachyrhizi): 90 to 100%; pest or weed control at 500 ppm (Leptosphaeria nodorum [4]): 90 to 100%; pest or weed control at 500 ppm (Septoria tritici [5]; [24]): 90 to 100%; pest or weed control at 100 ppm (Septoria tritici [5]; [25]): 81%; pest or weed control at 500 ppm (Septoria tritici [5]; [26]): 94%; pest or weed control at 100 ppm (Septoria tritici [5]; [27]): 94%; pest or weed control at 500 ppm (Septoria tritici [5]; [28]): 81%; Septoria tritici ED50 value in ppm (Septoria tritici [6]): <0.006 ppm; Botrytis cinerea ED50 value in ppm (Botrytis cinerea [7]): 0.02 ppm; Leptosphaeria nodorum ED50 value in ppm (Leptosphaeria nodorum [8]): <0.006 ppm; pest or weed control at 500 ppm (Uromyces appendiculatus; [29]): 90 to 100%; pest or weed control at 100 ppm (Uromyces appendiculatus; [30]): 20%; pest or weed control at 500 ppm (Uromyces appendiculatus; [31]): 100%; pest or weed control at 100 ppm (Venturia inaequalis): 90 to 100%

**Q.** With OC(Cc1ccc(Cl)cc1F)(Cn1cncc1Br)C1(Cl)CC1 (stereo not shown) [Example I-30] as the compound, how does the pest or weed control at 500 ppm [1] read?
**A.** 90 to 100%

**Q.** And the pest or weed control at 100 ppm (Alternaria solani)?
**A.** 90 to 100%

**Q.** What about the pest or weed control at 500 ppm (Puccinia recondita; [9]) of the same compound?
**A.** 90 to 100%

**Q.** And the pest or weed control at 100 ppm (Puccinia recondita; [10])?
**A.** 88%

**Q.** And the pest or weed control at 500 ppm (Puccinia recondita; [11])?
**A.** 94%

**Q.** And the pest or weed control at 500 ppm (Pyrenophora teres; [12])?
**A.** 90 to 100%

**Q.** And the pest or weed control at 100 ppm (Pyrenophora teres; [13])?
**A.** 91%

**Q.** And the pest or weed control at 500 ppm (Pyrenophora teres; [14])?
**A.** 94%

**Q.** What about the pest or weed control at 100 ppm (Pyrenophora teres; [15]) of the same compound?
**A.** 81%

**Q.** And the pest or weed control at 500 ppm (Pyrenophora teres; [16])?
**A.** 94%

**Q.** And the pest or weed control at 500 ppm (Botrytis cinerea [2]; [17])?
**A.** 90 to 100%

**Q.** What about the pest or weed control at 100 ppm (Botrytis cinerea [2]; read-out: Efficacy in %) of the same compound?
**A.** 100%

**Q.** And the pest or weed control at 500 ppm (Botrytis cinerea [2]; [18])?
**A.** 100%

**Q.** What about the Efficacy in % (Botrytis cinerea [2]; [19]) of the same compound?
**A.** 100%

**Q.** What about the Efficacy in % (Botrytis cinerea [2]; [20]) of the same compound?
**A.** 100%

**Q.** And the “Fusarium culmorum ED50 value in ppm” value (Fusarium culmorum)?
**A.** 0.01 ppm

**Q.** What about the chromatographic logP [3] of the same compound?
**A.** 2.55

**Q.** And the pest or weed control at 500 ppm (Pyricularia oryzae)?
**A.** 90 to 100%

**Q.** What about the pest or weed control at 500 ppm (Sphaerotheca fuliginea; [21]) of the same compound?
**A.** 90 to 100%

**Q.** What about the pest or weed control at 100 ppm (Sphaerotheca fuliginea; [22]) of the same compound?
**A.** 100%

**Q.** What about the pest or weed control at 500 ppm (Sphaerotheca fuliginea; [23]) of the same compound?
**A.** 100%

**Q.** And the pest or weed control at 100 ppm (Phakopsora pachyrhizi)?
**A.** 90 to 100%

**Q.** What about the pest or weed control at 500 ppm (Leptosphaeria nodorum [4]) of the same compound?
**A.** 90 to 100%

**Q.** And the pest or weed control at 500 ppm (Septoria tritici [5]; [24])?
**A.** 90 to 100%

**Q.** What about the pest or weed control at 100 ppm (Septoria tritici [5]; [25]) of the same compound?
**A.** 94%

**Q.** What about the pest or weed control at 500 ppm (Septoria tritici [5]; [26]) of the same compound?
**A.** 98%

**Q.** What about the pest or weed control at 100 ppm (Septoria tritici [5]; [27]) of the same compound?
**A.** 94%

**Q.** What about the pest or weed control at 500 ppm (Septoria tritici [5]; [28]) of the same compound?
**A.** 98%

**Q.** And the “Septoria tritici ED50 value in ppm” value (Septoria tritici [6])?
**A.** <0.006 ppm

**Q.** And the “Botrytis cinerea ED50 value in ppm” value (Botrytis cinerea [7])?
**A.** 0.08 ppm

**Q.** What about the “Leptosphaeria nodorum ED50 value in ppm” value (Leptosphaeria nodorum [8]) of the same compound?
**A.** 0.01 ppm

**Q.** And the pest or weed control at 500 ppm (Uromyces appendiculatus; [29])?
**A.** 90 to 100%

**Q.** And the pest or weed control at 100 ppm (Uromyces appendiculatus; [30])?
**A.** 88%

**Q.** And the pest or weed control at 500 ppm (Uromyces appendiculatus; [31])?
**A.** 100%

**Q.** What about the pest or weed control at 100 ppm (Venturia inaequalis) of the same compound?
**A.** 90 to 100%
